Results: patent publication US5409932A, “Piperazine-substituted pyrroloanthracenes” (Bayer AG, priority 1993, dated 1995)

Tests used:
human T cells = assay: Inhibition of 5-HT-dependent T Cell Proliferation; type: cell-based; conditions: monocyte-free human T cells stimulated with PWM and 5-HT, 3H-thymidine incorporation, 7 days
Description: The in vitro activity of the compounds according to the invention results from their capability to inhibit T cell proliferation, which is previously stimulated by serotonin.
Inhibition of 5-HT-dependent T Cell Proliferation
Peripheral mononuclear blood cells (PBMC) are obtained from the buffy coat of the blood of healthy subjects. After isolation by means of isolymph gradients (Pharmacia), the PBMC are washed twice and used directly. Purified T cells are obtained by E rosette formation with sheep erythrocytes [cf. Blue, M.-L. , J. F. Daley, H. Levine, K. A. Craig and S. F. Schlossmann, 1986, Biosynthesis and surface expression of T8 by peripheral blood T4+cells in vitro, J. Immunol. 137, 1202]. Monocytes are partially removed by adhesion to tissue culture plates or flasks. PBMC, T cells or purified T cells (depleted in monocytes) at 5×10^5 /ml, 100 μl/well are cultured in RPMI 1640 medium with 10% fetal calf serum (GIBCO) and L-glutamine in 96-well microculture plates (Becton--Dickinson)under a 5% CO2 atmosphere at 37° C. for 7 days. The cultures are treated with 1 μCi of ^3 H-thymidine for 6 h on the 7th day and collected on filter paper, and the incorporated radioactivity is determined by means of liquid scintillation counting.
The test substances are dissolved in 10 mM HCl in order to achieve a final concentration of 1 mM in each case. The compounds are diluted serially 3×with medium in order to obtain a final concentration between 33 μM-0.1 μM. PWM (1:200, pokeweed mitogen) and 5-HT (100 μm, serotonin), which contain the test substances, are added to monocyte-free human T cells. The positive control (maximum proliferation) is obtained from cultures containing T cells, PWM and 5-HT. The negative control (minimal proliferation) is obtained from cultures containing T cells and PWM without 5-HT. The inhibitory activity of the test substances is expressed as the IC50 in μM. (see also WO 92/04015)

[1] = system: Adjuvant Arthritis model in the Rat; assay: Adjuvant Arthritis model in the Rat (paw swelling); type: in vivo; conditions: Lewis rats; for inhibition in vivo at 10 mg/kg: Rattus norvegicus, ip, 384 h, 10 mg/kg i.p., days 0, 1, 2, 5, 7, 9, 12 and 14, day 16 vs day 0, read-out: Inhibition of the swelling (%), after administration of 10 mg/kg i.p.; for Inhibition of the swelling (%), after administration of 10 mg/kg i.p.: days 0, 1, 2, 5, 7, 9, 12 and 14, day 16 vs day 0
Description: Adjuvant Arthritis model in the Rat
Freund's adjuvant (FA) is prepared by addition of 10 mg/ml of heat-killed Mycobacterium butyricum to extra-heavy mineral oil. Lewis rats receive a 0.1 ml injection of FA (1 mg/animal) subcutaneously in the right hind paw. An acute inflammation takes place there, which is characterized by reddening, edema and a predominant neutrophilic cell infiltration (primary reaction). Tumescent areas in the treated paw on day 5 are followed between day 10-12 by an increase in the swelling (chronic inflammatory reaction) and the occurrence of a swelling in the opposite untreated paw (secondary immune response).
The cell infiltration of the chronic inflammation and the second immune response are mainly mononuclear, which indicates the presence of T-cell mediated immunity. The animals are observed daily, and the swelling is measured in millimeters on days 12 and 16 using a hand-adjustable micrometer. The swelling reaches its peak on the 16th day, on which the animals are sacrificed and tissue samples are taken for histological evaluation.
The extent of the swelling is determined by calculation of the greatest difference in the malleolus diameter between the 16th and the 0th day.
The animals receive the compounds according to the invention in a suspension of 5% polyethylene glycol and 0.5% Tween 80 in phosphate buffer solution p.o. or i.p. on days 0, 1, 2, 5, 7, 9, 12 and 14 [cf. for this purpose L. Sokoloff, 1984, Int. Rev. Exp. Pathol. 26, 107; M. E. J. Bittingham et al., 1989, J. Exp. Med. 171, 339; K. M. Conholly et al., 1989, Agents and Actions 27, 328].

| Compound | IC50 (human T cells; Homo sapiens, T-cell) | inhibition in vivo at 10 mg/kg [1] | IC50 (human T cells) | Inhibition of the swelling (%), after administration of 10 mg/kg i.p. [1] |
| --- | --- | --- | --- | --- |
| Clc1ccccc1N1CCN(CCCN2CC3C4c5ccccc5C(c5ccccc54)C3C2)CC1 (centres unmarked) [Example 82] | 5 µM | 35% |  |  |
| c1ccc(N2CCN(CCN3CC4C5c6ccccc6C(c6ccccc65)C4C3)CC2)cc1 (centres unmarked) [Example 60] | 5 µM | 40% |  |  |
| Clc1ccc(N2CCN(CCCN3CC4C5c6ccccc6C(c6ccccc65)C4C3)CC2)cc1 (centres unmarked) [Example 108] |  |  | 4 µM | 55% |
| Clc1ccc(N2CCN(CCCN3CC4C5c6ccccc6C(c6ccccc65)C4C3)CC2)cc1 (centres unmarked) [Example 109] |  |  | 5 µM | 34% |
| c1ccc(N2CCN(CCCCCN3CC4C5c6ccccc6C(c6ccccc65)C4C3)CC2)cc1 (centres unmarked) [Example 63] | 0.5 µM | 26% |  |  |
| Fc1ccc(N2CCN(CCCN3CC4C5c6ccccc6C(c6ccccc65)C4C3)CC2)cc1 (centres unmarked) [Example 58, 13-{3-[4-(4-Fluorophenyl)-piperazin-1-yl]propyl}-9,10,11,12,14,15-hexahydro-9,10[3', 4']pyrroloanthracene] | 5 µM | 40% |  |  |
| Clc1ccc(N2CCN(CCCN3CC4C5c6ccccc6C(c6ccccc65)C4C3)CC2)cc1 (centres unmarked) [Example 59] | 3 µM |  |  | 53% |
| Cc1ccc(N2CCN(CCCN3CC4C5c6ccccc6C(c6ccccc65)C4C3)CC2)c(C)c1 (centres unmarked) [Example 90] | 5 µM | 45% |  |  |
| CC12c3ccccc3C(c3ccccc31)C1C(=O)N(CCCN3CCN(c4ccc(Cl)cc4)CC3)C(=O)C12 (centres unmarked) [Example 30] | 5 µM | 47% |  |  |
| Fc1ccccc1N1CCN(CCCCN2CC3C4c5ccccc5C(c5ccccc54)C3C2)CC1 (centres unmarked) [Example 72] | 2 µM | 87% |  |  |
| CC12C(=O)N(CCCN3CCN(c4ccc(F)cc4)CC3)C(=O)C1C1c3ccccc3C2c2ccccc21 (centres unmarked) [Example 40] | 5 µM | 29% |  |  |
| c1ccc(N2CCN(CCCCCCN3CC4C5c6ccccc6C(c6ccccc65)C4C3)CC2)cc1 (centres unmarked) [Example 64] | 1 µM | 76% |  |  |
| c1ccc(N2CCN(CCCN3CC4C5c6ccccc6C(c6ccccc65)C4C3)CC2)cc1 (centres unmarked) [Example 61] | 5 µM | 50% |  |  |
| O=C1C2C3c4ccccc4C(CO)(c4ccccc43)C2C(=O)N1CCCN1CCN(c2ccc(F)cc2)CC1 (centres unmarked) [Example 33] | > 10 µM | 33% |  |  |
| Cc1cccc(C)c1N1CCN(CCCN2CC3C4c5ccccc5C(c5ccccc54)C3C2)CC1 (centres unmarked) [Example 88] | 1 µM | 73% |  |  |
| Cc1ccc(N2CCN(CCCCN3CC4C5c6ccccc6C(c6ccccc65)C4C3)CC2)cc1 (centres unmarked) [Example 74] | 0.6 µM | 76% |  |  |
| Cc1ccc(N2CCN(CCCN3C(=O)C4C5c6ccccc6C(c6ccccc65)C4C3=O)CC2)cc1 (centres unmarked) [Example 11] | > 10 µM | 32% |  |  |

| Compound | IC50 (human T cells; Homo sapiens, T-cell) | inhibition in vivo at 10 mg/kg [1] | IC50 (human T cells) | Inhibition of the swelling (%), after administration of 10 mg/kg i.p. [1] |
| --- | --- | --- | --- | --- |
| CC12c3ccccc3C(c3ccccc31)C1C(=O)N(CCCN3CCN(c4ccccc4)CC3)C(=O)C12 (centres unmarked) [Example 29] | > 10 µM | 24% |  |  |
| O=C1C2C3c4ccccc4C(c4ccccc43)C2C(=O)N1CCCN1CCN(c2ccc(Cl)cc2)CC1 (centres unmarked) [Example 2] |  | 4% |  |  |
| c1ccc(N2CCN(CCCCN3CC4C5c6ccccc6C(c6ccccc65)C4C3)CC2)cc1 (centres unmarked) [Example 62] | 5 µM | 90% |  |  |
| Cc1cccc(C)c1N1CCN(CCCN2C(=O)C3C4c5ccccc5C(c5ccccc54)C3C2=O)CC1 (centres unmarked) [Example 23] | > 10 µM |  |  |  |
| O=C1C2C3c4ccccc4C(Cl)(c4ccccc43)C2C(=O)N1CCCN1CCN(c2ccc(F)cc2)CC1 (centres unmarked) [Example 35] | > 10 µM |  |  |  |
| CC12c3ccccc3C(C)(c3ccccc31)C1C(=O)N(CCCN3CCN(c4ccc(F)cc4)CC3)C(=O)C12 (centres unmarked) [Example 110] |  |  | 2 µM |  |
| O=C1N(CCCN2CCN(c3ccc(F)cc3)CC2)C(=O)C2(Cl)C3c4ccccc4C(c4ccccc43)C12Cl (centres unmarked) [Example 51] | 50 µM |  |  |  |
| CCOc1ccccc1N1CCN(CCCN2CC3C4c5ccccc5C(c5ccccc54)C3C2)CC1 (centres unmarked) [Example 87] | 5 µM | 22% |  |  |
| COc1ccccc1N1CCN(CCCCN2CC3C4c5ccccc5C(c5ccccc54)C3C2)CC1 (centres unmarked) [Example 71] | 5 µM | 82% |  |  |
| O=C1C2C3c4ccccc4C(CO)(c4ccccc43)C2C(=O)N1CCCN1CCN(c2ccccc2)CC1 (centres unmarked) [Example 32] | > 10 µM |  |  |  |
| O=C1C2C3c4ccccc4C(c4ccccc43)C2C(=O)N1CCCN1CCN(c2cccc(Cl)c2)CC1 (centres unmarked) [Example 13] | > 10 µM |  |  |  |
| CC12C(=O)N(CCCN3CCN(c4ccccc4)CC3)C(=O)C1C1c3ccccc3C2c2ccccc21 (centres unmarked) [Example 39] | > 10 µM | 20% |  |  |
| COc1ccc(N2CCN(CCCN3CC4C5c6ccccc6C(c6ccccc65)C4C3)CC2)cc1 (centres unmarked) [Example 77] | 7 µM |  |  |  |
| ClC12c3ccccc3C(c3ccccc31)C1CN(CCCN3CCN(c4ccccc4)CC3)CC12 (centres unmarked) [Example 99] | 8 µM |  |  |  |
| O=C1C2C(C(=O)N1CCCN1CCN(c3ccc(F)cc3)CC1)C1(Br)c3ccccc3C2(Br)c2ccccc21 (centres unmarked) [Example 111] |  |  | 10 µM |  |
| OCC12c3ccccc3C(c3ccccc31)C1CN(CCCN3CCN(c4ccc(F)cc4)CC3)CC12 (centres unmarked) [Example 98] | 10 µM |  |  |  |
| COc1ccccc1N1CCN(CCCN2CC3C4c5ccccc5C(c5ccccc54)C3C2)CC1 (centres unmarked) [Example 86] | 3 µM |  |  |  |
